Reference: patent publication US20230301998A1, “METHODS AND COMPOSITIONS FOR INDUCTION OF ANTITUMOR IMMUNITY” (Sanford Burnham Prebys Medical Discovery Institute, priority 2020, published 2023)
Each block holds one molecule with its values, some of them ahead of it.

Tests used:
[1] = tested on: Nlrc5 and Nlrc5 target genes; experiment: Expression of antigen presentation genes / surface MHCI in B16 cells; format: cell-based, mouse; details: B16 cells, MTA 100 μM for 24 hr, qPCR (FIG. 14E)
[2] = tested on: B16F10 cells; experiment: B16F10 syngeneic melanoma tumor model in C57BL/6 mice (tumor volume, response, survival, immune phenotyping); format: in vivo, mouse; details: for Non-responder / Responder: number of mice
Method: Animal experiments. All animal experiments were conducted with approval of the Institutional Animal Care and Use Committee of Sanford Burnham Prebys Medical Discovery Institute (AUF#18-044). The murine melanoma lines B16F10, YUMM1.7 , and YUMMER1.7 were injected subcutaneously (2.0×10^5 cells of B16F10 or YUMM1.7; 4.0 ×10^5 cells of YUMMER1.7) into the lower right flank of 6-8-week-old male C57BL/6 (B16F10, YUMM1.7, YUMMER1.7) or Nod-Scid-Gamma (NSG) (B16F10, YUMMER1.7) mice. To induce transduced inducible shPRMT5, doxycycline (10 mg/ml, Fisher Bioreagents) was prepared in methylcellulose solution (0.5% hydroxylmethylcellulose, 0.2% Tween80) and administered to mice (0.2 ml, oral gavage, QD)Tumor sizes were monitored using calipers. At indicated time points, tumors were collected, 21 weighed and assessed for immune phenotypes using flow cytometry or immunofluorescence. To assess efficacy of immune checkpoint antibodies, mice were grafted with B16F10 or YUMM1.7 (2.0×10^5 cells, s.c.) cells and treated with 200 μg control IgG [rat IgG2a; BE0089 (BioXcell)], anti-CD152 (CTLA-4) [9H10 (BE0131, BioXcell)] or anti-CD279 (PD-1) [RMP1-14 (BE0146, BioXcell)]. Antibodies were injected (i.p.) 3 - 5 times (every 3 days starting from the indicated date). […] Antibodies were injected (i.p.) every 3 days starting one day prior to tumor cell inoculation. The efficiency of depletion was assessed using flow cytometry of blood samples collected at day 8 after tumor inoculation. To assess percent survival of animals, mice bearing tumors exceeding 2,000 mm^3 were defined as “dead”. Gene set enrichment (GSEA) and Ingenuity Pathway (IPA) analyses
(§1) Statistical analyses were performed using Prism software (version 7.00, GraphPad). For comparison of means of two groups with normal (or approximately normal) distributions, an un-paired t-test was applied. To compare means between >2 groups, one-way analysis of variance (ANOVA) was used with multiple comparison corrections (Dunnett's or Tukey's test). For animal experiments, two-way ANOVA (time and treatment) was used with Tukey's multiple comparison test. For Kaplan-Meier plots to compare overall survival, a log-rank test was used to determine significance of differences between groups. To evaluate response to therapy in a mouse model, Fisher's exact test (version 7.00, GraphPad) was used. For that analysis, a tumor with volume <50% of control tumors was defined as “responding to treatment”. For all analyses, a difference with p<0.05 was considered significant, unless specified.
For immune phenotyping, B16F10 tumors were collected and processed by chopping and mincing using a tube-secured cell strainer (70 p.m poresize, Falcon) to prepare single cells for flow cytometry. YUMMER1.7 cells were processed by chopping, following incubation in Collargenase D solution [0.1% (w/v) Collagenase D, 0.5% (w/v) BSA, 100 μg/ml DNase in PBS] for 1 hr at 30° C. and mincing using cells strainer. […] All antibodies were from Biolegend. Stained cells were fixed in 1% formaldehyde (Sigma) in PBS (pH7.4) for 15 min at 4° C. and analyzed with BD LSRFortessa (BD Biosciences) flow cytometry. For intranuclear staining of FoxP3, cells were fixed and permearbilized using a FoxP3/Transcription factor Fixation/Permearbilization kit (ThermoFisher Scientific). […] Cells were stained with antibody cocktail for surface markers [CD45.2, CD4, and CD8] and followed by staining with intraceullar cytokine antibodies [IFN gamma (APC), TNF alpha(FITC) and IL-2(PE)]. The number of specific immune cells per gram of tumor was calculated based on the percentage of specified immune cells identified in FACS (relative to the total number of tumors cells) per tumor weight. […] Cells were fixed and analyzed as above. To assess effects efficiency of in vivo depletion of CD8 T or NK cells, immune cells were isolated from mouse blood and RBCs were lysed using hypotonic buffer [15 mM NH4C1, 10 mM KHCO3, 0.1mM Na2EDTA] for 1 hr at 4° C.

[3] = tested on: YUMM1.7 cells; experiment: YUMM1.7 syngeneic melanoma tumor model in C57BL/6 mice (tumor volume, response); format: in vivo, mouse; details: for Non-responder / Responder: number of mice
Method: Animal experiments. All animal experiments were conducted with approval of the Institutional Animal Care and Use Committee of Sanford Burnham Prebys Medical Discovery Institute (AUF#18-044). The murine melanoma lines B16F10, YUMM1.7 , and YUMMER1.7 were injected subcutaneously (2.0×10^5 cells of B16F10 or YUMM1.7; 4.0 ×10^5 cells of YUMMER1.7) into the lower right flank of 6-8-week-old male C57BL/6 (B16F10, YUMM1.7, YUMMER1.7) or Nod-Scid-Gamma (NSG) (B16F10, YUMMER1.7) mice. To induce transduced inducible shPRMT5, doxycycline (10 mg/ml, Fisher Bioreagents) was prepared in methylcellulose solution (0.5% hydroxylmethylcellulose, 0.2% Tween80) and administered to mice (0.2 ml, oral gavage, QD)Tumor sizes were monitored using calipers. At indicated time points, tumors were collected, 21 weighed and assessed for immune phenotypes using flow cytometry or immunofluorescence. To assess efficacy of immune checkpoint antibodies, mice were grafted with B16F10 or YUMM1.7 (2.0×10^5 cells, s.c.) cells and treated with 200 μg control IgG [rat IgG2a; BE0089 (BioXcell)], anti-CD152 (CTLA-4) [9H10 (BE0131, BioXcell)] or anti-CD279 (PD-1) [RMP1-14 (BE0146, BioXcell)]. Antibodies were injected (i.p.) 3 - 5 times (every 3 days starting from the indicated date). […] To deplete NK or CD8+ cells, mice were treated with anti-NK1.1 antibody [PK136 (BE0036, BioXcell)] or anti-CD8 antibody [2.43(BE0061, BioXcell), respectively; controls were treated with 200 μtg IgG [rat IgG2b (BE0090, BioXcell)]. Antibodies were injected (i.p.) every 3 days starting one day prior to tumor cell inoculation. The efficiency of depletion was assessed using flow cytometry of blood samples collected at day 8 after tumor inoculation. To assess percent survival of animals, mice bearing tumors exceeding 2,000 mm^3 were defined as “dead”. Gene set enrichment (GSEA) and Ingenuity Pathway (IPA) analyses
as §1

[4] = tested on: RIG-I/TLR3; experiment: dsRNA poly(I:C)-induced type I interferon response in B16 cells (qPCR); format: cell-based, mouse; details: B16 melanoma cells, poly(I:C) 250 ng/ml 6 hr (FIG. 12J)
[5] = molecular target: T1, PRMT5 (Mus musculus, UniProt Q8CIG8); experiment: IP/immunoblot of IFI204 Arg methylation and SHARPIN interaction in B16 cells after PRMT5 inhibition; format: cell-based
T1 construct: endogenous in cells; host or cells: B16F10 murine melanoma cells (ATCC)
Method: Immunoblotting was performed using standard protocols. Melanoma cells were lysed by incubation in RIPA buffer [50 mM Tris-HC1, pH7.4, 1% (v/v) NP40, 0.1% (w/v) sodium deoxycholate, 0.1% (w/v) sodium dodecyl sulfate, 150 mM NaCl, 1mM EDTA, and protease and phosphatase inhibitor cocktails (Thermo Fisher Scientific)] and freeze-thawed 3 times. For immunoprecipitation HEK293T cells were lysed in 1% Triton X-100 buffer [50 mM Tris-HC1, pH7.4, 1% (v/v) Triton X-100, 150 mM NaCl, 1 mM EDTA, and protease and phosphatase inhibitor cocktails (Thermo Fisher Scientific)] and freeze-thawed 3 times. Lysates were then incubated overnight with indicated antibodies and then for 4 hr with protein A/G agarose beads (Santa Cruz Biotechnology) under gentle mixing. Proteins were eluted by addition of lysis buffer and boiled in Laemmli buffer before separation on SDS-PAGE and transfer to a PVDF membrane. […] Protein bands were visualized and quantified using an Odyssey Infrared Imaging System (LiCor Biosciences) or ChemiDoc Imaging System (Bio-Rad). […] STING polymer was analyzed using BlueNative(BN) PAGE (3). […] STING dimers and polymers were detected using a STING antibody (D2P2F, Cell Signaling),Immunofluorescence

[6] = molecular target: T2, PRMT5 (Homo sapiens, UniProt O14744); experiment: IP/immunoblot of IFI16 Arg methylation and SHARPIN interaction in human melanoma cells after PRMT5 inhibition; format: cell-based
T2 construct: endogenous in cells; host or cells: A375 and WM115 human melanoma cells
Method: Immunoblotting was performed using standard protocols. Melanoma cells were lysed by incubation in RIPA buffer [50 mM Tris-HC1, pH7.4, 1% (v/v) NP40, 0.1% (w/v) sodium deoxycholate, 0.1% (w/v) sodium dodecyl sulfate, 150 mM NaCl, 1mM EDTA, and protease and phosphatase inhibitor cocktails (Thermo Fisher Scientific)] and freeze-thawed 3 times. For immunoprecipitation HEK293T cells were lysed in 1% Triton X-100 buffer [50 mM Tris-HC1, pH7.4, 1% (v/v) Triton X-100, 150 mM NaCl, 1 mM EDTA, and protease and phosphatase inhibitor cocktails (Thermo Fisher Scientific)] and freeze-thawed 3 times. Lysates were then incubated overnight with indicated antibodies and then for 4 hr with protein A/G agarose beads (Santa Cruz Biotechnology) under gentle mixing. Proteins were eluted by addition of lysis buffer and boiled in Laemmli buffer before separation on SDS-PAGE and transfer to a PVDF membrane. Membranes were incubated for 1 h at room temperature with blocking solution [TBS (Tris-buffered Saline); 10 mM Tris-HC1, pH8.0, 150 mM NaCl)] containing 0.1% Tween 20 and 5% nonfat milk followed by incubation overnight at 4° C. with appropriate primary antibodies. Membranes were washed with TBS and incubated 1 h at room temperature with secondary antibody [Alexa 680-conjugated goat anti-rabbit, goat anti-mouse, donkey anti-goat (Life Technologies) or IRDye 800-conjugated goat anti-mouse (Rockland Immunochemicals)], or HRP-conjugated anti-mouse or anti-rabbit IgG antibodies. TidyBlot anti-rabbit secondary antibody (Bio-Rad) was used to detect immunoprecipitated proteins (SHARPIN). Blots were treated with HRP-conjugated antibodies and SuperSignal West Pico or Femto chemiluminescent substrate (ThermoFisher scientific). Protein bands were visualized and quantified using an Odyssey Infrared Imaging System (LiCor Biosciences) or ChemiDoc Imaging System (Bio-Rad). […] STING polymer was analyzed using BlueNative(BN) PAGE (3). […] STING dimers and polymers were detected using a STING antibody (D2P2F, Cell Signaling),Immunofluorescence

[7] = tested on: cGAS/STING pathway; experiment: dsDNA (V70mer)-stimulated cGAS/STING signalling in B16 cells (qPCR, western blot); format: cell-based, mouse
[8] = FIG. 17E: B16 in C57BL/6, PRMT5i GSK3326595 40 mg/kg from day 10, anti-PD-1 200 μg/mouse days 11, 14, 17, responder = tumor volume <50% of control
[9] = FIG. 18C: B16F10 in syngeneic mice, PRMT5i GSK3326595 40 mg/kg QD from day 6, anti-PD1 days 8, 11, 14, 17
[10] = FIG. 17F: YUMM1.7 in C57BL/6, PRMT5i from day 7, anti-PD-1 days 8, 11, 14, 17
[11] = FIG. 17G: YUMM1.7 in C57BL/6, anti-CD8 200 μg/mouse every three days, PRMT5i from day 8, anti-PD-1 days 9, 12, 15, 18

T2 sequence (O14744 whole entry): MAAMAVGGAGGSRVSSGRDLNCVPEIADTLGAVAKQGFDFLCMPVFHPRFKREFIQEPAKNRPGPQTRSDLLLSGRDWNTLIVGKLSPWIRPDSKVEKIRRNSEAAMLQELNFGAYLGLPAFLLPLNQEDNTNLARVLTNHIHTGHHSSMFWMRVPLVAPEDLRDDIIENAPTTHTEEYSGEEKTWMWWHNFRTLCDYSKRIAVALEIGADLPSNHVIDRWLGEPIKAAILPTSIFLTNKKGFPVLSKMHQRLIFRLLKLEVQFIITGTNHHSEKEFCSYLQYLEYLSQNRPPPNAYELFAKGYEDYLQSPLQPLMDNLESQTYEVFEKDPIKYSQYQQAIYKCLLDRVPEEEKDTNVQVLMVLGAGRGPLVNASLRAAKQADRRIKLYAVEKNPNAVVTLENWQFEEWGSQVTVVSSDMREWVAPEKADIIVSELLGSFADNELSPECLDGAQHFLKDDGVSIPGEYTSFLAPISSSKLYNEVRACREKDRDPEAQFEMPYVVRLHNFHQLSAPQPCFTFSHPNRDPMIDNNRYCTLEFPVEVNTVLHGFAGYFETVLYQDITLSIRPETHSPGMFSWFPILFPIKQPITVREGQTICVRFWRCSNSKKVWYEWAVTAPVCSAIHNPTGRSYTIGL
T2 sequence (Q9BQA1 whole entry partner): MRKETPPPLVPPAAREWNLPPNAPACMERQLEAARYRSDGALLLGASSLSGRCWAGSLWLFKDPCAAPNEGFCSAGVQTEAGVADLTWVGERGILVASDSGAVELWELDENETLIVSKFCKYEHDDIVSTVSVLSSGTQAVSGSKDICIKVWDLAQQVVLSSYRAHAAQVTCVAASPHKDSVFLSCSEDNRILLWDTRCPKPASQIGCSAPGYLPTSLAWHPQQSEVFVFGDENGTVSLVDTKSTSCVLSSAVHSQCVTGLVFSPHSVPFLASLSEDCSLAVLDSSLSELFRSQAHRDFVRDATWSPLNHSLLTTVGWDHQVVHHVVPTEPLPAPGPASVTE
T1 sequence (Q8CIG8 whole entry): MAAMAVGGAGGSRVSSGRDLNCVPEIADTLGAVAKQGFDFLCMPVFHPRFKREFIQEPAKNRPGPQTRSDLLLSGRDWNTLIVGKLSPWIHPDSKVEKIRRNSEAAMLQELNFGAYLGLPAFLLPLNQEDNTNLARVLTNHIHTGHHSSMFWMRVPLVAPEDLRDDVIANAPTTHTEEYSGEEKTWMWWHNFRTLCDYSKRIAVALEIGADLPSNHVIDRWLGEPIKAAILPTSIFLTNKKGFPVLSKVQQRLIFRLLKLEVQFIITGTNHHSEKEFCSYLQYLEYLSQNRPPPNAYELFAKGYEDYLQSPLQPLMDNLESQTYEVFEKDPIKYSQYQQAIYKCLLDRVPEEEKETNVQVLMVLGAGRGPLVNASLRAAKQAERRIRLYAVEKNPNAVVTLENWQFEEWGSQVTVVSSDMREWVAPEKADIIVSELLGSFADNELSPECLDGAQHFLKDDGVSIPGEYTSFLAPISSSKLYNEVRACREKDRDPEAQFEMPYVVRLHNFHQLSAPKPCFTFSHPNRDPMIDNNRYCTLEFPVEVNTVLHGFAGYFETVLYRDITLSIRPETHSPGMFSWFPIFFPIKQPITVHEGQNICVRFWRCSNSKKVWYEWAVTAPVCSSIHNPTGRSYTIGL
T1 sequence (Q99J09 whole entry partner): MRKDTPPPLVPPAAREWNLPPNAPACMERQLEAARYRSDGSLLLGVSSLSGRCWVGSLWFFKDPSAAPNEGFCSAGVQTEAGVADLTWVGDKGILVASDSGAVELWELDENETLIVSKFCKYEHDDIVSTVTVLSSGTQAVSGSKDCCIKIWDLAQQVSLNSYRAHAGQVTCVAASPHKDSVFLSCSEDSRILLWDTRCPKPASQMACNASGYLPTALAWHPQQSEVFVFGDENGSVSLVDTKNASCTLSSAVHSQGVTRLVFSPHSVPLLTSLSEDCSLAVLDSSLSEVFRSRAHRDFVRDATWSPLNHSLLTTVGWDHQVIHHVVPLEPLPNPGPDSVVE

Molecule: CSC[C@H]1O[C@@H](n2cnc3c(N)ncnc32)[C@H](O)[C@@H]1O [MTA]
- basal Nlrc5 expression and that of Nlrc5 target genes (Tap1, B2m, Psmb9) [1]: increased

Molecule: CC(=O)N1CCC(Nc2cc(C(=O)NC[C@H](O)CN3CCc4ccccc4C3)ncn2)CC1 [GSK3326595]
- immune cell infiltration or activation in tumors ([2]; B16F10, PRMT5i monotherapy 40 mg/kg QD from day 8, tumors day 15, flow cytometry (FIGS. 18E-G)): notable changes were not observed
- response rate across experiments ([2]; B16 and YUMM1.7 models, FIGS. 17E-F, 18C-D, table 5): 14.3˜66.7%
- Non-responder [2, 8]: 6
- Responder [2, 8]: 1
- Response rate (%) ([2]; FIG. 17E: B16 in C57BL/6, PRMT5i from day 10, anti-PD-1 days 11, 14, 17, percent of responders in group): 14.3%
- Response rate (%) ([2]; FIG. 18C: B16F10, PRMT5i 40 mg/kg QD from day 6, anti-PD1 days 8, 11, 14, 17): 66.7%
- Non-responder [2, 9]: 2
- Responder [2, 9]: 4
- Response rate (%) [3, 10]: 28.6%
- Non-responder [3, 10]: 5
- Responder [3, 10]: 2
- Non-responder [3, 11]: 6
- Responder [3, 11]: 1
- Response rate (%) ([3]; FIG. 17G: YUMM1.7 in C57BL/6, anti-CD8 depletion, PRMT5i from day 8, anti-PD-1 days 9, 12, 15, 18): 14.3%

Molecule: poly(I:C)
- Ifnb1 and chemokine expression [4]: induced

- IFI204 interaction with SHARPIN ([5]; EPZ015666 10 μM (FIG. 8D)): stronger interaction with SHARPIN
- reduced IFI204 methylation ([5]; EPZ015666 10 μM (FIG. 8F)): 57%
- decrease in IFI16 methylation ([6]; A375 melanoma cells, EPZ015666 10 μM (FIG. 8E)): 50%
- degree of interaction between IFI16 and SHARPIN ([6]; A375 melanoma cells, EPZ015666 10 μM (FIG. 10C)): enhanced
- decrease in IFI16 methylation ([6]; WM115 cells (MTAP-deleted), EPZ015666 10 μM (FIG. 10D)): 15%
Molecule: O=C(NC[C@H](O)CN1CCc2ccccc2C1)c1cc(NC2COC2)ncn1 [EPZ015666]
- expression of Ifnb1, Cc15 and Cxcl10 ([7]; B16 cells treated 24 hr, then V70mer dsDNA 500 ng/ml 6 h, qPCR (FIG. 11B)): increased
- TBK1-IRF3 signaling ([7]; B16 melanoma, V70mer 1.5 μg/ml, western blot (FIG. 11G)): activated TBK1-IRF3 signaling
